Laboratory results published in patent publication US20100285959A1, “HERBICIDAL MIXTURES” (priority 2006, published 2010).

Key:
yellow nutsedge (CYPES) = assay: Test 2 field trial, preemergence; assay type: in vivo, Cyperus esculentus; parameters: scale not given here
Source text: Corn seeds (hybrid ‘Pioneer 31G96’) were planted in mid spring season, 3.8 cm deep in a clay loam soil having 2% organic matter and a pH of 6.6. Plots were 6.1 m long by 3.0 m wide with rows spaced 76 cm apart. Seeds were spaced 15 cm apart within the rows. The field was managed using conventional tillage practices. […] A few of the weed species could not be evaluated at every timing. […] Results are the means of the three replicates.

[1] = test system: Virginia pepperweed (LEPVI); assay: Test 3 field trial, emerged weeds before corn planting; assay type: in vivo, Lepidium virginicum; conditions: Cpd 2 100, glyphosate 1540, paraquat 1150 g a.i./ha, alone or combined
Source text: (§1) Corn seeds (hybrid ‘Pioneer 33J56’) were planted in early spring season, 3.8 cm deep in a silt loam soil having 2.4% organic matter and a pH of 6. Plots were 6.1 m long by 2.7 m wide with rows spaced 91.4 cm apart. The field was managed using no-till practices. […] Compound 2 and paraquat treatments, alone and in combination, also included a surfactant. Glyphosate, alone and with Compound 2, included ammonium sulfate in the treatment mixture. […] The effects on the weeds in the treated plots and untreated control plots were recorded 30, 42, 46 and 68 days after application. Most of the weed species could not be evaluated at every timing. Corn response was not evaluated because the growth was highly variable depending on the efficacy of the weed control treatments. […] Results are the means of the three replicates.

common chickweed (STEME) = assay: as above; assay type: in vivo, Stellaria media; conditions: Cpd 2 100, glyphosate 1540, paraquat 1150 g a.i./ha, alone or combined
Source text: as §1

annual grasses (GGGAN) = assay: Test 7 field trial, preemergence; assay type: in vivo, Gramineae
Procedure: (§2) Plots were 7.6 m long by 3.0 m wide with rows spaced 76 cm apart. Seeds were spaced 15 cm apart within the rows. The field was managed using conventional tillage practices. […] Wild radish was evaluated 14 and 28 days after application. […] Results are the means of the three replicates.

morningglory (IPOSS) = assay: Test 7 field trial, preemergence; assay type: in vivo, Ipomoea L. spp.
Procedure: as §2

corn (ZEAMD) = assay: Test 7 field trial, preemergence; assay type: in vivo, Zea mays ssp. indentata
Procedure: as §2

[2] = test system: ivyleaf morningglory (IPOHE); assay: Test 14 field trial, preemergence, growth as percent of control; assay type: in vivo, Ipomoea hederacea; conditions: 28 DAA
Source text: Corn seeds (hybrid ‘Pioneer 31G96 RR’) were planted in mid spring season, 3.8 cm deep in a clay loam soil having 2% organic matter and a pH of 6.6. Plots were 6.1 m long by 3.0 m wide with rows spaced 76 cm apart. Seeds were spaced 15 cm apart within the rows. The field was managed using conventional tillage practices. […] Yellow nutsedge was only evaluated 19 and 28 days after application, and ivyleaf morningglory could only be evaluated 28 days after application. […] Results are the means of the three replicates. This growth inhibition data was converted to results in the form of “plant growth as a percent of control plant growth” using the calculation “100 minus growth inhibition”. […] For “growth as a percent of control” data, Colby's Equation calculates the expected additive effect of herbicidal mixtures having two active ingredients as follows:
Ga+b=GaGb/100 • wherein Ga+b is the growth as a percent of control of plants treated with the mixture expected from additive contribution of the individual components, • Ga is the observed growth as a percent of control of plants treated with the first active ingredient at the same use rate as in the mixture, and • Gb is the observed growth as a percent of control of plants treated with the second active ingredient at the same use rate as in the mixture. For mixtures having three active ingredients, Colby's Equation to calculate the expected additive effect of herbicidal mixtures is as follows:
Ga+b+c=GaGbGc/10,000 • wherein Ga and Gb are as defined above and • Ga+b+c is the growth as a percent of control of plants treated with the mixture expected from additive contribution of the individual components, and • Gc is the observed growth as a percent of control of plants treated with the third active ingredient at the same use rate as in the mixture. When these two forms of Colby's Equation are used, if the observed effects on weeds are less than the expected values, the mixture is synergistic.

redroot pigweed (AMARE) = assay: Test 22 growth chamber, postemergence; assay type: in vivo, Amaranthus retroflexus; conditions: 25 DAA
Procedure: A test was conducted to evaluate the effects on winter barley (HORVW, Hordeum vulgare L.), winter wheat (TRZAW, Triticum aestivum L.), and several weed species of mixtures of Compound 2 with the commercial herbicides (2,4-dichlorophenoxy)acetic acid (2,4-D) and (4-chloro-2-methylphenoxy)acetic acid (MCPA), auxin mimics. […] Plants were treated postemergence at the 2-4 leaf growth stage, except KCHSC, SASKR and STEME which were in the 4-8 leaf growth stage. Each treatment was replicated one time. […] Plants were watered as needed. […] Results are from single replicates.

[3] = test system: common lambsquarters (CHEAL); assay: Test 4 field trial, postemergence; assay type: in vivo, Chenopodium album; conditions: 14 DAA
[4] = test system: common lambsquarters (CHEAL); assay: Test 24 growth chamber, postemergence; assay type: in vivo, Chenopodium album; conditions: 17 DAA
Procedure: Plants were treated postemergence at the 2-4 leaf growth stage, and each treatment was replicated three times. […] Plants were watered as needed. […] Results for barley and wheat are the means across varieties of the three replicates, and results for the weeds are the means of the three replicates.

[5] = 18 DAA, g a.i./ha: Cpd 2 25, Atrazine 250
[6] = 18 DAA, g a.i./ha: Cpd 2 50, Atrazine 500
[7] = 18 DAA, g a.i./ha: Cpd 2 75, Atrazine 750
[8] = 18 DAA, g a.i./ha: Cpd 2 100, Atrazine 1000
[9] = 18 DAA, g a.i./ha: Cpd 2 150, Atrazine 1500
[10] = 28 DAA, g a.i./ha: Cpd 2 25, Atrazine 250
[11] = 28 DAA, g a.i./ha: Cpd 2 50, Atrazine 500
[12] = 28 DAA, g a.i./ha: Cpd 2 75, Atrazine 750
[13] = 28 DAA, g a.i./ha: Cpd 2 100, Atrazine 1000
[14] = 28 DAA, g a.i./ha: Cpd 2 150, Atrazine 1500
[15] = 55 DAA, g a.i./ha: Cpd 2 25, Atrazine 250
[16] = 55 DAA, g a.i./ha: Cpd 2 50, Atrazine 500
[17] = 55 DAA, g a.i./ha: Cpd 2 75, Atrazine 750
[18] = 55 DAA, g a.i./ha: Cpd 2 100, Atrazine 1000
[19] = 55 DAA, g a.i./ha: Cpd 2 150, Atrazine 1500

CCNc1nc(Cl)nc(NC(C)C)n1 [Atrazine, atrazine, reference compound]
CYPES Obs (yellow nutsedge (CYPES); [5]): 13 | CYPES Obs (yellow nutsedge (CYPES); [6]): 18 | CYPES Obs (yellow nutsedge (CYPES); [7]): 40 | CYPES Obs (yellow nutsedge (CYPES); [8]): 28 | CYPES Obs (yellow nutsedge (CYPES); [9]): 27 | CYPES Obs (yellow nutsedge (CYPES); [10]): 0 | CYPES Obs (yellow nutsedge (CYPES); [11]): 5 | CYPES Obs (yellow nutsedge (CYPES); [12]): 0 | CYPES Obs (yellow nutsedge (CYPES); [13]): 2 | CYPES Obs (yellow nutsedge (CYPES); [14]): 0 | CYPES Obs (yellow nutsedge (CYPES); [15]): 10 | CYPES Obs (yellow nutsedge (CYPES); [16]): 13 | CYPES Obs (yellow nutsedge (CYPES); [17]): 0 | CYPES Obs (yellow nutsedge (CYPES); [18]): 62 | CYPES Obs (yellow nutsedge (CYPES); [19]): 60

O=C(O)CNCP(=O)(O)O [Glyphosate]
LEPVI Obs ([1]; 30 DAA): 98% | LEPVI Obs ([1]; 42 DAA): 82% | LEPVI Obs ([1]; 46 DAA): 98% | STEME Obs (common chickweed (STEME); 30 DAA): 100% | STEME Obs (common chickweed (STEME); 42 DAA): 88% | STEME Obs (common chickweed (STEME); 46 DAA): 100%

CCc1cccc(C)c1N(C(=O)CCl)[C@@H](C)COC [S-Metolachlor, S-metolachlor, reference compound]
GGGAN Obs (annual grasses (GGGAN); 14 DAA, 1000 g a.i./ha): 97% | GGGAN Obs (annual grasses (GGGAN); 28 DAA, 1000 g a.i./ha): 93% | GGGAN Obs (annual grasses (GGGAN); 62 DAA, 1000 g a.i./ha): 75% | IPOSS Obs (morningglory (IPOSS); 14 DAA, 1000 g a.i./ha): 48% | IPOSS Obs (morningglory (IPOSS); 28 DAA, 1000 g a.i./ha): 50% | IPOSS Obs (morningglory (IPOSS); 62 DAA, 1000 g a.i./ha): 13% | ZEAMD Obs (corn (ZEAMD); 14 DAA, 1000 g a.i./ha): 10% | ZEAMD Obs (corn (ZEAMD); 28 DAA, 1000 g a.i./ha): 8% | ZEAMD Obs (corn (ZEAMD); 62 DAA, 1000 g a.i./ha): 0% | Obs growth % of control ([2]; 1870 g a.i./ha): 0%

COC(=O)c1nc(C2CC2)nc(N)c1Cl [Compound 2, methyl 6-amino-5-chloro-2-cyclopropyl-4-pyrimidinecarboxylate]
Postemergence AMARE Obs (redroot pigweed (AMARE); Cpd 2 alone 4 g a.i./ha): 55 | Postemergence AMARE Obs (redroot pigweed (AMARE); Cpd 2 alone 8 g a.i./ha): 65 | Postemergence AMARE Obs (redroot pigweed (AMARE); Cpd 2 alone 16 g a.i./ha): 65 | GGGAN Obs (annual grasses (GGGAN); 14 DAA, 125 g a.i./ha): 33% | GGGAN Obs (annual grasses (GGGAN); 14 DAA, 250 g a.i./ha): 65% | GGGAN Obs (annual grasses (GGGAN); 14 DAA, 500 g a.i./ha): 67% | GGGAN Obs (annual grasses (GGGAN); 28 DAA, 125 g a.i./ha): 33% | GGGAN Obs (annual grasses (GGGAN); 28 DAA, 250 g a.i./ha): 48% | GGGAN Obs (annual grasses (GGGAN); 28 DAA, 500 g a.i./ha): 52% | GGGAN Obs (annual grasses (GGGAN); 62 DAA, 125 g a.i./ha): 0% | GGGAN Obs (annual grasses (GGGAN); 62 DAA, 250 g a.i./ha): 0% | GGGAN Obs (annual grasses (GGGAN); 62 DAA, 500 g a.i./ha): 0% | IPOSS Obs (morningglory (IPOSS); 14 DAA, 125 g a.i./ha): 100% | IPOSS Obs (morningglory (IPOSS); 14 DAA, 250 g a.i./ha): 100% | IPOSS Obs (morningglory (IPOSS); 14 DAA, 500 g a.i./ha): 100% | IPOSS Obs (morningglory (IPOSS); 28 DAA, 125 g a.i./ha): 100% | IPOSS Obs (morningglory (IPOSS); 28 DAA, 250 g a.i./ha): 100% | IPOSS Obs (morningglory (IPOSS); 28 DAA, 500 g a.i./ha): 100% | IPOSS Obs (morningglory (IPOSS); 62 DAA, 125 g a.i./ha): 100% | IPOSS Obs (morningglory (IPOSS); 62 DAA, 500 g a.i./ha): 100% | CYPES Obs (yellow nutsedge (CYPES); [5]): 12 | CYPES Obs (yellow nutsedge (CYPES); [6]): 18 | CYPES Obs (yellow nutsedge (CYPES); [7]): 22 | CYPES Obs (yellow nutsedge (CYPES); [8]): 25 | CYPES Obs (yellow nutsedge (CYPES); [9]): 30 | CYPES Obs (yellow nutsedge (CYPES); [10]): 0 | CYPES Obs (yellow nutsedge (CYPES); [11]): 0 | CYPES Obs (yellow nutsedge (CYPES); [12]): 0 | CYPES Obs (yellow nutsedge (CYPES); [13]): 0 | CYPES Obs (yellow nutsedge (CYPES); [14]): 0 | CYPES Obs (yellow nutsedge (CYPES); [15]): 0 | CYPES Obs (yellow nutsedge (CYPES); [16]): 0 | CYPES Obs (yellow nutsedge (CYPES); [17]): 0 | CYPES Obs (yellow nutsedge (CYPES); [18]): 0 | CYPES Obs (yellow nutsedge (CYPES); [19]): 10 | ZEAMD Obs (corn (ZEAMD); hybrid Pioneer 36B10, corn (Zea mays ssp. indentata), in vivo, 62 days after application): 0% | LEPVI Obs ([1]; 30 DAA): 69% | LEPVI Obs ([1]; 42 DAA): 18% | LEPVI Obs ([1]; 46 DAA): 23% | CHEAL Obs ([3]; Cpd 2 30 g a.i./ha alone or with clodinafop 56 or fenoxaprop 90): 83 | CHEAL Obs ([3]; Cpd 2 60 g a.i./ha alone or with clodinafop 56 or fenoxaprop 90): 92 | STEME Obs (common chickweed (STEME); 30 DAA): 62% | STEME Obs (common chickweed (STEME); 42 DAA): 37% | STEME Obs (common chickweed (STEME); 46 DAA): 30% | CHEAL Obs (scale 0 to 100) ([4]; Cpd 2 4 g a.i./ha): 45 | CHEAL Obs (scale 0 to 100) ([4]; Cpd 2 8 g a.i./ha): 60 | CHEAL Obs (scale 0 to 100) ([4]; Cpd 2 16 g a.i./ha): 73 | Obs growth % of control ([2]; 75 g a.i./ha): 0% | Obs growth % of control ([2]; 100 g a.i./ha): 0%

O=C(O)COc1ccc(Cl)cc1Cl [2,4-D, (2,4-dichlorophenoxy)acetic acid]
Postemergence AMARE Obs (redroot pigweed (AMARE); 2,4-D or MCPA alone 250 g a.i./ha): 70
